Several values for one entry are separate records, joined by “and”; a condition that tells them apart may be missing. Identical values can stand only once.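 How tested: cells in 96-well plates exposed to compound for 48 hours at five concentrations. GI50 marks 50% less growth. TGI denotes the concentration required for complete inhibition of growth.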
Legend:
Assay in all cases: growth of human tumour cells (NCI), 48 h
COLO 205 colon = tested on: COLO 205 colon
IGROV1 ovarian = tested on: IGROV1 ovarian
LOX IMVI melanoma = tested on: LOX IMVI melanoma
NCI/ADR-RES ovarian = tested on: NCI/ADR-RES ovarian
SF-539 CNS = tested on: SF-539 CNS
SW-620 colon = tested on: SW-620 colon
TK-10 renal = tested on: TK-10 renal
CCRF-CEM leukemia = tested on: CCRF-CEM leukemia

SMILES | GI50 (COLO 205 colon) [µM] | TGI (COLO 205 colon) [µM] | GI50 (IGROV1 ovarian) | TGI (IGROV1 ovarian) | GI50 (LOX IMVI melanoma) | TGI (LOX IMVI melanoma) | GI50 (NCI/ADR-RES ovarian) | TGI (NCI/ADR-RES ovarian) | GI50 (SF-539 CNS) | TGI (SF-539 CNS) [µM] | GI50 (SW-620 colon) | TGI (SW-620 colon) | GI50 (TK-10 renal) | TGI (TK-10 renal) | GI50 (CCRF-CEM leukemia) | TGI (CCRF-CEM leukemia)
Cc1cccc(Oc2nccc(-c3c(-c4ccc(F)cc4)ncn3C3CCNCC3)n2)c1C | 4.21 | 8.03 | 6.76 µM | > 16.7 µM | 5.79 µM | > 15.1 µM | 11.5 µM | > 25 µM | 4.84 µM | 10.4 | 7.81 µM | > 14.3 µM | 7.16 µM | > 16.3 µM | – | –
Cc1cc2cc3cc(C)c(N(C)C)cc3nc2cc1N(C)C | 1.84 | 7.41 | 4.96 µM | > 100 µM | 3.33 µM | 78 µM | 31.7 µM | > 100 µM | 3.08 µM | 12.7 | 3.1 µM | 26.6 µM | 4.03 µM | 31.2 µM | 8.99 µM | > 100 µM
CSc1cnn(CCC#N)c(=O)n1 | – | > 100 | – | > 100 µM | – | > 100 µM | – | – | – | > 100 | – | > 100 µM | – | > 100 µM | – | > 100 µM
CC1/C=C/C=C/C=C/C=C/C=C/C=C/C=C/C(O[C@@H]2O[C@H](C)[C@H](O)[C@@H](O)[C@@H]2N)CC(O)C(C(=O)O)C(O)CC(=O)CC(O)CC(O)CC(O)CC(=O)CCCC(=O)CC(=O)OC1C(C)CC(C)C(O)CC(=O)c1ccc(N)cc1 (stereo not given in full) | 0.559 | 1.72 | 0.0598 µM and 0.226 µM | 0.116 µM and 0.536 µM | 0.0555 µM and 0.166 µM | 0.101 µM and 0.305 µM | 0.0626 µM and 0.209 µM | 0.125 µM and 0.474 µM | 0.0604 µM and 0.481 µM | – | 0.0588 µM and 0.198 µM | 0.109 µM and 0.43 µM | 0.0573 µM and 0.315 µM | 0.104 µM and 0.983 µM | 0.0627 µM and 0.206 µM | 0.141 µM and 0.489 µM
COc1cc2c(cc1OCCOS(C)(=O)=O)N=C[C@@H]1CCCN1C2=O | – | > 100 | – | 99.1 µM | 15.7 µM | 29.5 µM | 13.5 µM | 26.7 µM | 18.6 µM | 47.2 | 14.6 µM | 38.4 µM | 18.1 µM | 33.2 µM | 14.5 µM | 54.9 µM
CCCCCCCC/C=C/CCCCCCCCC1=NCCN1CCO | 3.76 | 13.9 | 2.58 µM | 6.19 µM | – | – | 8.44 µM | 38.4 µM | 1.64 µM | 3.02 | 1.71 µM | 3.24 µM | 12.6 µM | 26.7 µM | 1.91 µM | 4.96 µM
O=P(O)(O)c1ccccc1 (tested in a mixture with another compound) | – | > 100 | – | > 100 µM | – | > 100 µM | – | > 100 µM | – | – | – | > 100 µM | – | > 100 µM | – | > 100 µM
COc1cc(C(=O)/C=C/c2cc(C(=O)c3cc(OC)c(OC)c(OC)c3)ccc2OC)ccc1N | – | – | 2.07 µM | 8.62 µM | 0.74 µM | 2.03 µM | 0.388 µM | 2.51 µM | 1.53 µM | 3.98 | 0.374 µM | > 100 µM | 3.61 µM | 18 µM | 0.35 µM | > 100 µM
CCCCCC(O)C1C(=O)OC(C)C(O)/C=C/C=C/C=C/C=C\C=C(\C)C(O)CC(O)CC(O)CC(O)CC(O)CC(O)CC1O (stereo not given) | > 100 | > 100 | > 100 µM | > 100 µM | > 100 µM | > 100 µM | > 100 µM | > 100 µM | > 100 µM | > 100 | > 100 µM | > 100 µM | > 100 µM | > 100 µM | > 100 µM | > 100 µM
C/C(=N\NC(=O)c1ccncc1)c1ccc2ccccc2c1O | – | 11.5 | – | 99.3 µM | – | > 100 µM | – | > 54.3 µM | – | 23.2 | – | > 100 µM | – | > 100 µM | – | > 100 µM
CCSCC(N)C(=O)O (stereo not given) | – | > 100 | – | > 100 µM | – | > 100 µM | – | > 100 µM | – | – | – | > 100 µM | – | > 100 µM | – | > 100 µM
COc1ccc(NC(=O)n2nc(N)c3ccccc32)cc1OC | 85.8 | > 100 | 18.1 µM | 84 µM | 49.3 µM | > 100 µM | 37.6 µM | > 100 µM | 95.9 µM | > 100 | > 100 µM | > 100 µM | 92.4 µM | > 100 µM | 36.7 µM | > 100 µM
O=C(OCc1ccccc1)N1CCN(/[N+]([O-])=N/Oc2ccc([N+](=O)[O-])cc2[N+](=O)[O-])CC1 | 4.35 | 18.6 | 2.01 µM | 23.2 µM | – | – | 5.25 µM | > 100 µM | 2.81 µM | 7.11 | 3.79 µM | > 100 µM | 17.6 µM | 33.4 µM | – | –
COC(=O)c1ccc2c(c1)nc(-c1cc3ccccc3[nH]c1=O)n2-c1cc(C(C)(C)C)[nH]n1 | – | – | 1.23 µM | > 100 µM | – | – | 2.97 µM | > 100 µM | > 20.3 µM | > 100 | – | – | 40 µM | > 74.7 µM | 0.853 µM | > 100 µM
CS(=O)CCCCCN=C=S (stereo not given) | 3.21 | 12 | 4.88 µM | 21.6 µM | 0.782 µM | 10.3 µM | 4.72 µM | 22 µM | – | – | 4.1 µM | 15.9 µM | 3.83 µM | 10.3 µM | 4.1 µM | 16.3 µM
CN(C)c1ccc(C(=C2C=CC(=[N+](C)C)C=C2)c2ccc(N(C)C)cc2)cc1 (tested in a mixture with another compound) | 0.0232 | 0.0519 | 0.161 µM | 1.78 µM | – | – | 0.912 µM | – | 0.0643 µM | 0.748 | 0.0476 µM | 1.35 µM | 0.0394 µM | 0.321 µM | 0.231 µM | 19.5 µM
COc1cc(/C=C/c2cc(/C=C/c3ccc(O)c(OC)c3)n(-c3c(C)cccc3C)c(=O)n2)ccc1O | 2.07 | 4.19 | 1.24 µM | 6.87 µM | – | – | 1.42 µM | 5.77 µM | – | – | – | – | 1.14 µM | 4.87 µM | – | –

— PubChem BioAssay (NCI)
